The record followed here is PMC12112332, “Characterization of Novel and Known Activators of Cannabinoid Receptor Subtype 2 Reveals Mixed Pharmacology That Differentiates Mycophenolate Mofetil and GW-842,166X from MDA7” (International Journal of Molecular Sciences, 2025).

Each structure is given as a SMILES string. Where two headings read alike, the source gives them in different places. A value given as a limit tells only on which side of the number the result lay.

The target of one test is T1, rCB1 (Rattus norvegicus, UniProt P20272).
T1 construct: expressed in transfected cells; host or cells: HEK293 cells stably co-expressing GIRK channels
T1 sequence (P20272 whole entry): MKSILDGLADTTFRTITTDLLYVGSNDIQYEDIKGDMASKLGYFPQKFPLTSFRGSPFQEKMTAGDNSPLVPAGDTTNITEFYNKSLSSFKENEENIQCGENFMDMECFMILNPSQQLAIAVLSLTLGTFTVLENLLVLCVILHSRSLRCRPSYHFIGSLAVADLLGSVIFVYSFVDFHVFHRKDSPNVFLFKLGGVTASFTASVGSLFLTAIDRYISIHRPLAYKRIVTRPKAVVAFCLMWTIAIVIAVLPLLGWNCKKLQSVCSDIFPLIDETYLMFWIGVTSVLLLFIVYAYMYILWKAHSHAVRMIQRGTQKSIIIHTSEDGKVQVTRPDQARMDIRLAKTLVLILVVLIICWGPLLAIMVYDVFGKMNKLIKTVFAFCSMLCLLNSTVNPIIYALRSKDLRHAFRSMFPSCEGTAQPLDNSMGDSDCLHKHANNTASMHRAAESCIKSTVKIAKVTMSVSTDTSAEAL
The experiment in a line: Thallium flux assay in HEK/GIRK cells expressing rCB1. The test is classed as cell-based. As to conditions: for rCB1 GIRK (−) 2-AG % Max ± SEM / rCB1 GIRK (+) 2-AG % Max ± SEM: % of maximal 2-AG response. As to the method: The cell lines used in this manuscript were generated in-house. Their preparation is described in detail in Qi et al.. Cells were used for 10 passages for experiments and day-to-day signals in both the CB2 and CB1 lines were stable across this passage number. Human Embryonic Kidney (HEK) 293 cells stably expressing rCB2 and the G protein Gqi9 were maintained in Dulbecco’s modified Eagle media (DMEM) containing 10% FBS, 1× antibiotic/antimycotic, 20 mM HEPES, 1 mM sodium pyruvate, 2 mM L-glutamine, 1× non-essential amino acids, 700 µg/mL G418 sulfate, and 0.6 µg/mL puromycin. HEK cells stably expressing rCB2 or rCB1 and the G protein inwardly rectifying potassium channel (GIRK) were maintained in DMEM/F12 containing 10% FBS, 1× antibiotic/antimycotic, 20 mM HEPES, 1 mM sodium pyruvate, 2 mM L-glutamine, 1× non-essential amino acids, 700 µg/mL G418 sulfate, and 0.6 µg/mL puromycin. Cells were monitored by periodic PCR detection using the LookOut Mycoplasma PCR Detection Kit (Sigma-Aldrich, St Louis, MO, USA) to eliminate potential mycoplasma infection. Reagents were obtained from Invitrogen (Waltham, MA, USA) unless otherwise noted.
Thallium flux assays were performed as previously described in Niswender et al., 2008 [31]. HEK/GIRK cells stably expressing rCB1 or rCB2 (15,000 cells/20 µL/well) were seeded in 384-well, poly-D-lysine coated assay plates (Corning BioCoat®) (Corning Inc., Corning, NY, USA) and incubated overnight at 37 °C in the presence of 5% CO2. The next day, the medium was removed and replaced with 20 μL of 1.2 µM thallium-sensitive dye Thallos-AM (ION biosciences, San Marcos, TX, USA), prepared as a DMSO stock solution mixed in a 1:1 ratio with 10% (w/v) pluronic acid F-127, and diluted in assay buffer (Hank’s balanced salt solution, 20 mM HEPES, pH 7.4). Following 1 h at room temperature, the dye solution was removed and replaced with 20 µL assay buffer. For screening of the FDA-Approved Drug Collection, 10 mM DMSO stocks of library compounds were transferred to daughter plates using an Echo acoustic plate reformatter (Labcyte, Sunnyvale, CA, USA) and diluted in assay buffer to a 2× final concentration. For concentration–response curve experiments, compounds were serially diluted 1:3 into 10-point concentration–response curves in DMSO, transferred to daughter plates using the Echo or Bravo Automated Liquid Handling Platform (Agilent Technologies, Santa Clara, CA, USA), and diluted in assay buffer to a 2× final concentration. Thallium flux was measured using the Hamamatsu FDSS/μCELL Kinetic Plate Imager (Bridgewater, NJ, USA). After the establishment of a fluorescence baseline (excitation, 480 ± 20 nm; emission, 540 ± 30 nm), 20 µL (2×) of test compound was added to the cells at 1 s and the response was measured. After 140 s, 10 µL (5×) of an EC20 concentration of agonist (PAM mode) or vehicle (AGO mode) in thallium stimulus buffer (125 mM NaHCO3, 1.8 mM CaSO4, 1 mM MgSO4, 5 mM glucose, 12 mM Tl2SO4, 10 mM HEPES, 0.5% BSA, pH 7.4) was added to the cells, and the response of the cells was measured for an additional 159 s (data were acquired for 300 s total at 0.5 Hz for 140 s and 1 Hz for 160 s). Raw kinetic data were analyzed in a multi-step process: (1) Fluorescence readings for each time point in a well were divided by the fluorescence reading at the initial time point to account for differences in cell number, non-uniform illumination, and dye-loading. (2) The slope value for each kinetic trace was calculated for the time window of 145–155 s, a window occurring directly after the second addition. (3) The average slope was calculated for wells containing vehicle and this value was subtracted from all wells. (4) The vehicle-subtracted slope was normalized to the relevant maximal agonist signal for each assay. […]

The target of a further test is T2, rat CB2 (Rattus norvegicus, UniProt Q9QZN9).
T2 sequence (Q9QZN9 1-360): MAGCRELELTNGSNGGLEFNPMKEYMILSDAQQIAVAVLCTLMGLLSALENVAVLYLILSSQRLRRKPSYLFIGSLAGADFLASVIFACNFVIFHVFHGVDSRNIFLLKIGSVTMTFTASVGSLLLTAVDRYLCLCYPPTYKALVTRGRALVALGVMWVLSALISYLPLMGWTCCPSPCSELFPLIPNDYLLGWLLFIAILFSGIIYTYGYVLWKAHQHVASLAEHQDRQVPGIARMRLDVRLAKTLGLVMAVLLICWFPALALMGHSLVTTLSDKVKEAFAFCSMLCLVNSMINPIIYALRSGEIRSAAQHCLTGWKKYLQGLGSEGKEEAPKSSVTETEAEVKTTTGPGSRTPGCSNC
The experiment in a line: [3H]CP55,940 radioligand competition binding, membranes of HEK/GIRK cells expressing rat CB2. More on the design: expressed in transfected cells; host or cells: HEK293 cells stably co-expressing GIRK1/2 channels. As to conditions: for rCB2 Binding Affinity pKi ± SEM: 0.5 nM [3H]CP55,940, equilibrium; for rCB2 Binding % Max ± SEM: % of specific [3H]CP55,940 binding. An excerpt:
Agonists that bind to the receptor at the site occupied by the endogenous ligand (2-AG in this case) are considered orthosteric agonists. It is also possible for an agonist to bind and activate a receptor via a site other than the orthosteric site; these ligands are classified as allosteric agonists. To characterize the nature of the agonist activity of mycophenolate mofetil, we tested its ability to bind to the receptor in equilibrium binding assays using membranes harvested from cells expressing rCB2 using the radioligand [^3H]CP55,940 [40, 60]. CP55,940 has an affinity for both CB1 and CB2 receptors in the low nM range and is reported to bind to the site occupied by 2-AG [61].
Competition binding concentration–response curves were obtained in the presence of 0.5 nM [^3H]CP55,940 using membranes harvested from HEK/GIRK cells expressing rCB2. Data represent the mean ± SEM of three independent experiments run in triplicate. Data are plotted as a percentage of specific [^3H]CP55,940 binding. Non-specific binding was determined in the presence of 10 µM CP55,940.
Membranes were made from HEK/GIRK cells stably expressing rat CB2. Radioligand competition binding assays were performed as previously described, with minor modifications. In brief, compounds were serially diluted into assay buffer with 0.1% bovine serum albumin (BSA) and added to each well of a 96-well plate, along with 20 μg/well cell membrane and approximately 500 pM [^3H]-CP55,940 (specific activity = 104 Ci/mmol, PerkinElmer, Waltham, MA, USA). Following a 3-h incubation period on a shaker at room temperature, membrane-bound ligand was separated from free ligand by filtration through glass fiber 96-well filter plates (Unifilter-96, GF/B; PerkinElmer, Waltham, MA, USA). Forty microliters of scintillation fluid were added to each well, and membrane-bound radioactivity was determined by scintillation counting (Microbeta2; Revvity, Waltham, MA, USA). Nonspecific binding was determined using 10 μM of cold CP55,940.
On the technique in general: Displacement assays read how much labelled ligand stays bound in the presence of the test substance.

In the case of `O=C(NCC1CCOCC1)c1cnc(Nc2ccc(Cl)cc2Cl)nc1C(F)(F)F` [GW-842,166X, 2-(2,4-dichloroanilino)-N-(oxan-4-ylmethyl)-4-(trifluoromethyl)pyrimidine-5-carboxamide], the “rCB1 GIRK (−) 2-AG pEC50 ± SEM” value at rCB1 (absence of 2-AG) is listed as “Inactive”. Besides, on rCB1 (presence of EC20 2-AG), the “rCB1 GIRK (+) 2-AG pEC50 ± SEM” value was “Inactive”. Moreover, at rat CB2, the EC50 was greater than 10000 nM and the “rCB2 Binding Affinity pKi ± SEM” value was “Incomplete”. The “rCB2 Binding % Max ± SEM” value on rat CB2 (0.5 nM [3H]CP55,940) worked out at 22 ± 2%.
For the compound `CC1(Cc2ccccc2)COc2cc(C(=O)N3CCCCC3)ccc21` (centres unmarked) [MDA7, 1-[(3-benzyl-3-methyl-2,3-dihydro-1-benzofuran-6-yl)carbonyl]piperidine], the “rCB1 GIRK (−) 2-AG % Max ± SEM” value on rCB1 (absence of 2-AG) was 50 ± 2%. The “rCB1 GIRK (+) 2-AG % Max ± SEM” value on rCB1 (presence of EC20 2-AG) worked out at 48 ± 2%. Besides, the EC50 at rCB1 (rCB1 GIRK EC50 in absence of 2-AG, absence of 2-AG) worked out at 477 nM; on rCB1 (rCB1 GIRK EC50 in presence of 2-AG, presence of EC20 2-AG), 395 nM. Moreover, the Ki (commonly the equilibrium dissociation constant of an inhibitor or competing ligand from its target) on rat CB2 was 251 nM. The “rCB2 Binding % Max ± SEM” value on rat CB2 (0.5 nM [3H]CP55,940) worked out at 5.3 ± 1.7%.
Regarding `COc1c(C)c2c(c(O)c1C/C=C(\C)CCC(=O)OCCN1CCOCC1)C(=O)OC2` [Mycophenolate mofetil], on rCB1 (absence of 2-AG), the “rCB1 GIRK (−) 2-AG pEC50 ± SEM” value is reported as less than 5.0 and the “rCB1 GIRK (−) 2-AG % Max ± SEM” value is −15 ± 3%. At rCB1 (presence of EC20 2-AG), the “rCB1 GIRK (+) 2-AG pEC50 ± SEM” value is listed as less than 5.0 and the “rCB1 GIRK (+) 2-AG % Max ± SEM” value was −5.5 ± 1.1%. Besides, the EC50 on rCB1 (presence of EC20 2-AG, read-out: rCB1 GIRK (+) 2-AG pEC50 ± SEM (converted)) is greater than 10000 nM. The “rCB2 Binding Affinity pKi ± SEM” value on rat CB2 is “Incomplete”. Also, on rat CB2 (0.5 nM [3H]CP55,940), the “rCB2 Binding % Max ± SEM” value was 20 ± 1%. In addition, the EC50 on rat CB2 (0.5 nM [3H]CP55,940, tested up to 30 µM, read-out: rCB2 Binding pEC50 (incomplete displacement) (converted)) is greater than 10000 nM.
For the compound `COc1c(C)c2c(c(O)c1C/C=C(\C)CCC(=O)O)C(=O)OC2` [Mycophenolic acid], the “rCB1 GIRK (+) 2-AG pEC50 ± SEM” value on rCB1 (presence of EC20 2-AG) is on record as “Inactive”.
